Patent publication US5827845A, “Cephalosporin derivative” (priority 1993, dated 1998)

Assays:
[1] = tested on: Enterococcus hirae ATCC 8043; assay: minimum growth inhibitory concentration, serial dilution method; type: cell-based; details: sodium salts, 35° C., 18-20 hours; for MIC: Enterococcus hirae, ATCC8043, Enterococcus hirae ATCC 8043, read-out: Minimum growth inhibition concentrations (MIC)
Procedure: (§1) The determination of MIC. was conducted by inoculating the test microorganism to an incubation medium N for sensitive disc (a product of Nissui Seiyaku Co., Japan), effecting the incubation at 35° C. for 18-20 hours and then estimating the growth of the bacteria. The compounds tested were the sodium salts of Compound A to Compound F indicated below:
(§2) For the comparison purpose, the values similarly determined of MIC. ([…]) of ME1206 compound (sodium salt), Cefdinir (sodium salt) (abbreviated as CFDN) and Cefixime (sodium salt) (abbreviated as CFIX) are also shown in Table 1.

[2] = tested on: Enterobacter cloacae G-0008; assay: as above; type: cell-based; details: 35° C., 18-20 hours; for MIC: G0008, sodium salts, read-out: Minimum growth inhibition concentrations (MIC)
Procedure: as §1, §2

[3] = tested on: Staphylococcus aureus 209P JC-1; assay: as above; type: cell-based; details: S. aureus 209P JC-1, sodium salts, 35° C., 18-20 hours; for MIC: Staphylococcus aureus, 209P, read-out: Minimum growth inhibition concentrations (MIC)
Procedure: as §1, §2

[4] = tested on: Serratia marcescens No. 1; assay: as above; type: cell-based; details: sodium salts, 35° C., 18-20 hours; for MIC: read-out: Minimum growth inhibition concentrations (MIC)
Procedure: as §1, §2

[5] = tested on: Staphylococcus aureus M126*; assay: as above; type: cell-based; details: S. aureus M126, methicillin-resistant (MRSA), sodium salts, 35° C., 18-20 hours; for MIC: Staphylococcus aureus, read-out: Minimum growth inhibition concentrations (MIC)
Procedure: as §1, §2

Escherichia coli GN 206 = assay: as above; type: cell-based; details: sodium salts, 35° C., 18-20 hours; for MIC: Escherichia coli, GN206, Escherichia coli GN 206, read-out: Minimum growth inhibition concentrations (MIC)
Procedure: as §1, §2

Morganella morganii 1510 = assay: as above; type: cell-based; details: sodium salts, 35° C., 18-20 hours; for MIC: Morganella morganii, 1510, Morganella morganii 1510, read-out: Minimum growth inhibition concentrations (MIC)
Procedure: as §1, §2

[6] = tested on: Enterococcus faecalis W-73; assay: as above; type: cell-based; details: sodium salts, 35° C., 18-20 hours; for MIC: Enterococcus faecalis, W73, Enterococcus faecalis W-73, read-out: Minimum growth inhibition concentrations (MIC); for Minimum growth inhibition concentrations (MIC): Enterococcus faecalis W-73
Procedure: as §1, §2

[7] = tested on: Staphylococcus aureus M133*; assay: as above; type: cell-based; details: S. aureus M133, methicillin-resistant (MRSA), sodium salts, 35° C., 18-20 hours; for MIC: Staphylococcus aureus, MRSA, read-out: Minimum growth inhibition concentrations (MIC)
Procedure: as §1, §2

[8] = blood concentration pharmacokinetics after subcutaneous injection in mice; type: in vivo, mice (Jcl;ICR strain); details: for concentration in blood (in words): injected subcutaneously, mice; for half-life / AUC: mouse, serum, sc, 0.5 mg; for AUC: read-out: AUC (area under the plasma concentration-time curve)
Procedure: The test procedure used was as follows: Thus, to mice of Jcl;ICR strain (4 week-aged, male) each was administered subcutaneously an aqueous solution containing 2.5 mg/ml of a test compound dissolved in distilled water sterilized for injections, in such a way that 0.2 ml of said aqueous solution (corresponding to a dosage of the test compound of 0.5 mg per mouse) was injected to one mouse. At the time-points of 5, 15, 30, 60 and 120 minutes after the administration, the blood samples were collected from the armpit of mouse. The blood samples so collected were each allowed to stand for about 2 hours at room temperature and then centrifuged for 10 minutes in a centrifugal separator to recover the serum. The serum obtained was mixed well with an equal volume of methanol added thereto, and the resulting mixture was centrifuged at 12,000 rpm. for 3 minutes. The supernatant obtained was passed through a filter (Sumplep LCR-13-LH) to obtain the serum sample to be assayed by a high performance liquid chromatography (HPLC). This serum sample was assayed by HPLC to measure quantitatively the concentration of the test compound in the serum.
For each test compound, its half-life value in blood and its AUC (Area under the plasma concentration-time curve),which are the pharmacokinetic parameters, were evaluated according to the method of Gauss-Newton.
For the comparison purpose, the ME1206 compound was also tested in the same manner as above.

[9] = sodium salt, subcutaneous, 0.5 mg per mouse, HPLC of serum

Compound	MIC [1]	MIC [2]	MIC [3]	MIC [4]	MIC [5]	MIC (Escherichia coli GN 206)	MIC (Morganella morganii 1510)	MIC [6]	MIC [7]	concentration in blood (in words) [8]	half-life [8, 9]	AUC [8, 9]	also measured
C=CC1=C(C(=O)O)N2C(=O)[C@@H](NC(=O)/C(=N\O)c3csc(N)n3)[C@H]2SC1 [CFDN, Cefdinir, reference compound]	50 µg/mL	6.25 µg/mL	0.2 µg/mL	25 µg/mL	> 100 µg/mL	25 µg/mL	25 µg/mL	25 µg/mL	6.25 µg/mL	–	–	–	–
C=CC1=C(C(=O)O)N2C(=O)[C@@H](NC(=O)/C(=N\OCC(=O)O)c3csc(N)n3)[C@H]2SC1 [CFIX, Cefixime, reference compound]	> 100 µg/mL	0.78 µg/mL	12.5 µg/mL	0.78 µg/mL	> 100 µg/mL	50 µg/mL	50 µg/mL	> 100 µg/mL	100 µg/mL	–	–	–	–
Nc1nc(C(=NO)C(=O)NC2C(=O)N3C(C(=O)O)=C(C=Cc4scnc4Cl)CSC23)cs1 (stereo not drawn) [Compound A, 7-[2-Hydroxyimino-2-(2-aminothiazol-4-yl)acet-amido]-3-[2-(4-chlorothiazol-5-yl)vinyl]-3-cephem-4-carboxylic acid (syn-isomer, cis-isomer)]	12.5 µg/mL	1.56 µg/mL	0.1 µg/mL	1.56 µg/mL	25 µg/mL	1.56 µg/mL	12.5 µg/mL	6.25 µg/mL	6.25 µg/mL	capable of maintaining a high concentration in blood	1.1 h	211 µg·h/mL	–
Nc1nc(C(=NO)C(=O)NC2C(=O)N3C(C(=O)O)=C(C=Cc4scnc4C(F)(F)F)CSC23)cs1 (stereo not drawn) [Compound B, 7-[2-Hydroxyimino-2-(2-aminothiazol-4-yl)acet-amido]-3-[2-(4-trifluoromethylthiazol-5-yl)vinyl]-3-cephem-4-carboxylic acid (syn-isomer, cis-isomer)]	6.25 µg/mL	1.56 µg/mL	0.39 µg/mL	1.56 µg/mL	25 µg/mL	1.56 µg/mL	1.56 µg/mL	12.5 µg/mL	6.25 µg/mL	capable of maintaining a high concentration in blood	0.7 h	149 µg·h/mL	–
Cc1ncsc1C=CC1=C(C(=O)O)N2C(=O)C(NC(=O)C(=NO)c3csc(N)n3)C2SC1 (stereo not drawn) [Compound C, 7-[2-Hydroxyimino-2-(2-aminothiazol-4-yl)acet-amido]-3-[2-(4-methylthiazol-5-yl)vinyl]-3-cephem-4-carboxylic acid (syn-isomer, cis-isomer)]	6.25 µg/mL	0.78 µg/mL	0.2 µg/mL	1.56 µg/mL	25 µg/mL	3.13 µg/mL	1.56 µg/mL	12.5 µg/mL	6.25 µg/mL	capable of maintaining a high concentration in blood	1.4 h	249 µg·h/mL	AUC (area under the plasma concentration-time curve) [8, 9]: 315.5 µg·h/mL; Half-life value in blood [8, 9]: 1.7 h
Nc1nc(C(=NO)C(=O)NC2C(=O)N3C(C(=O)O)=C(C=Cc4cncs4)CSC23)cs1 (stereo not drawn) [Compound D, 7-[2-Hydroxyimino-2-(2-aminothiazol-4-yl)acet-amido]-3-[2-(thiazol-5-yl)vinyl]-3-cephem-4-carboxylic acid(syn-isomer, cis-isomer)]	12.5 µg/mL	0.78 µg/mL	0.1 µg/mL	0.78 µg/mL	25 µg/mL	1.56 µg/mL	12.5 µg/mL	–	3.13 µg/mL	capable of maintaining a high concentration in blood	–	–	Minimum growth inhibition concentrations (MIC) [6]: 1.56 µg/mL
Nc1nc(C(=NO)C(=O)NC2C(=O)N3C(C(=O)O)=C(C=Cc4cncs4)CSC23)cs1 (stereo not drawn) [Compound E, 7-[2-Hydroxyimino-2-(2-aminothiazol-4-yl)acet-amido]-3-[2-(thiazol-5-yl)vinyl]-3-cephem-4-carboxylic acid (syn-isomer, trans-isomer)]	–	–	–	–	–	–	–	–	–	capable of maintaining a high concentration in blood	1.1 h	253 µg·h/mL	Minimum growth inhibition concentrations (MIC) ([1]; Enterococcus hirae ATCC 8043): 25 µg/mL; Minimum growth inhibition concentrations (MIC) ([2]; sodium salts): 0.78 µg/mL; Minimum growth inhibition concentrations (MIC) [3]: 0.20 µg/mL; Minimum growth inhibition concentrations (MIC) [4]: 0.78 µg/mL; Minimum growth inhibition concentrations (MIC) [5]: 25 µg/mL; Minimum growth inhibition concentrations (MIC) (Escherichia coli GN 206; Escherichia coli GN 206): 0.78 µg/mL; Minimum growth inhibition concentrations (MIC) (Morganella morganii 1510; Morganella morganii 1510): 6.25 µg/mL; Minimum growth inhibition concentrations (MIC) [6]: 3.13 µg/mL; Minimum growth inhibition concentrations (MIC) [7]: 6.25 µg/mL
Cc1ncsc1C=CC1=C(C(=O)O)N2C(=O)C(NC(=O)C(=NO)c3nsc(N)n3)C2SC1 (stereo not drawn) [Compound F, 7-[2-Hydroxyimino-2-(5-amino-1,2,4-thiadiazol-3-yl)acetamido]-3-[2-(4-methylthiazol-5-yl)vinyl]-3-cephem-4-carboxylic acid (syn-isomer, cis-isomer)]	25 µg/mL	1.56 µg/mL	0.39 µg/mL	3.13 µg/mL	50 µg/mL	6.25 µg/mL	25 µg/mL	25 µg/mL	3.13 µg/mL	capable of maintaining a high concentration in blood	0.9 h	163 µg·h/mL	–
CON=C(C(=O)NC1C(=O)N2C(C(=O)O)=C(C=Cc3scnc3C)CSC12)c1csc(N)n1 (stereo not drawn) [ME1206, 7-[2-methoxyimino-2-(2-aminothiazol-4-yl)acetamido]-3-[2-(4-methylthiazol-5-yl)vinyl]-3-cephem-4-carboxylic acid (syn-isomer, cis-isomer), reference compound]	50 µg/mL	1.56 µg/mL	0.39 µg/mL	0.39 µg/mL	100 µg/mL	0.78 µg/mL	25 µg/mL	100 µg/mL	25 µg/mL	–	1.1 h	184 µg·h/mL	–
